Assays:
Experiment in all cases: relative viability (nuclei count vs DMSO), 5 days (fraction); higher = more cells survive
[1] = compound: CC(=O)c1c(C)c2cnc(Nc3ccc(N4CCNCC4)cn3)nc2n(C2CCCC2)c1=O [Palbociclib]
How it was run: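 Lung cancer cell lines received five library-drug doses (not always all listed) spaced by √10, pinned on vehicle-anchored 1536-well plates after an overnight stay at 37 °C. Five days later, with no medium change, nuclei were Hoechst-stained, imaged at 4× and counted with MetaXpress. Viability is treated-well nuclei relative to vehicle-well nuclei, as a median across plates. Passing plates had control CV below 25% and at least one doubling.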

[2] = compound: CC(=O)c1c(C)c2cnc(Nc3ccc(N4CCNCC4)cn3)nc2n(C2CCCC2)c1=O [Palbociclib] + Cc1cc(Nc2cc(N3CCN(C)CC3)nc(Sc3ccc(NC(=O)C4CC4)cc3)n2)n[nH]1 [Tozasertib] (partner 0.1 µM)
How it was run: (§1)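 Medians of duplicate plates are given as relative viability. That measure is the nuclei count in treated wells divided by the count in vehicle wells. Counts were taken on 4× images of lung cancer cell lines in 1536-well plates, 5 days after pin-tool dosing the day after seeding with one drug alone or a fixed anchor-drug dose plus five library-drug doses (not always all listed) in √10 steps.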

[3] = compound: CC(=O)c1c(C)c2cnc(Nc3ccc(N4CCNCC4)cn3)nc2n(C2CCCC2)c1=O [Palbociclib] + N=C(N)NC(=N)NCCc1ccccc1 [Phenformin] (partner 250 µM)
How it was run: as §1

[4] = compound: CC(=O)c1c(C)c2cnc(Nc3ccc(N4CCNCC4)cn3)nc2n(C2CCCC2)c1=O [Palbociclib] + CC(=O)Nc1cccc(-n2c(=O)n(C3CC3)c(=O)c3c(Nc4ccc(I)cc4F)n(C)c(=O)c(C)c32)c1 [Trametinib] (partner 0.02 µM)
How it was run: as §1

[5] = compound: CC(=O)c1c(C)c2cnc(Nc3ccc(N4CCNCC4)cn3)nc2n(C2CCCC2)c1=O [Palbociclib] + COc1cc2c(Oc3ccc(NC(=O)C4(C(=O)Nc5ccc(F)cc5)CC4)cc3F)ccnc2cc1OCCCN1CCOCC1 [Foretinib] (partner 0.25 µM)
How it was run: as §1

[6] = compound: CC(=O)c1c(C)c2cnc(Nc3ccc(N4CCNCC4)cn3)nc2n(C2CCCC2)c1=O [Palbociclib] + Nc1nc2[nH]cc(CCc3ccc(C(=O)N[C@@H](CCC(=O)O)C(=O)O)cc3)c2c(=O)[nH]1 [Pemetrexed] (partner 0.2 µM)
How it was run: as §1

[7] = compound: CC(=O)c1c(C)c2cnc(Nc3ccc(N4CCNCC4)cn3)nc2n(C2CCCC2)c1=O [Palbociclib] + Cc1nc(Nc2ncc(C(=O)Nc3c(C)cccc3Cl)s2)cc(N2CCN(CCO)CC2)n1 [Dasatinib] (partner 0.075 µM)
How it was run: as §1

[8] = compound: CC(=O)c1c(C)c2cnc(Nc3ccc(N4CCNCC4)cn3)nc2n(C2CCCC2)c1=O [Palbociclib] + O=C(CCCCCCC(=O)Nc1ccccc1)NO [Vorinostat] (partner 1 µM)
How it was run: as §1

[9] = compound: CC(=O)c1c(C)c2cnc(Nc3ccc(N4CCNCC4)cn3)nc2n(C2CCCC2)c1=O [Palbociclib] + O=C(c1cc(Cc2n[nH]c(=O)c3ccccc23)ccc1F)N1CCN(C(=O)C2CC2)CC1 [Olaparib] (partner 8 µM)
How it was run: as §1

[10] = compound: CC(=O)c1c(C)c2cnc(Nc3ccc(N4CCNCC4)cn3)nc2n(C2CCCC2)c1=O [Palbociclib] + CCNC(=O)c1noc(-c2cc(C(C)C)c(O)cc2O)c1-c1ccc(CN2CCOCC2)cc1 [Luminespib] (partner 0.01 µM)
How it was run: as §1

[11] = compound: CC(=O)c1c(C)c2cnc(Nc3ccc(N4CCNCC4)cn3)nc2n(C2CCCC2)c1=O [Palbociclib] + NC(=O)Nc1cc(-c2cccc(F)c2)sc1C(=O)N[C@H]1CCCNC1 [AZD7762] (partner 0.2 µM)
How it was run: as §1

[12] = compound: CC(=O)c1c(C)c2cnc(Nc3ccc(N4CCNCC4)cn3)nc2n(C2CCCC2)c1=O [Palbociclib] + COc1cccc2cc(-c3nc([C@H]4CC[C@H](C(=O)O)CC4)n4ncnc(N)c34)[nH]c12 [OSI-027] (partner 0.5 µM)
How it was run: as §1

[13] = compound: CC(=O)c1c(C)c2cnc(Nc3ccc(N4CCNCC4)cn3)nc2n(C2CCCC2)c1=O [Palbociclib] + Nc1ncn([C@H]2C[C@H](O)[C@@H](CO)O2)c(=O)n1 [Decitabine] (partner 2 µM)
How it was run: as §1

NCI-H2342
relative viability ([1]; 0.01 µM): 1.01 | relative viability ([1]; 0.03162 µM): 0.846 | relative viability ([1]; 0.1 µM): 0.849 | relative viability ([1]; 0.3162 µM): 0.785 | relative viability ([1]; 0.5 µM, anchor plate): 0.527 | relative viability ([1]; 1 µM): 0.621 | relative viability ([2]; first compound 0.01 µM): 0.556 | relative viability ([2]; first compound 0.03162 µM): 0.4 | relative viability ([2]; first compound 0.1 µM): 0.493 | relative viability ([2]; first compound 0.3162 µM): 0.544 | relative viability ([2]; first compound 1 µM): 0.409 | relative viability ([3]; first compound 0.01 µM): 0.569 | relative viability ([3]; first compound 0.03162 µM): 0.555 | relative viability ([3]; first compound 0.1 µM): 0.477 | relative viability ([3]; first compound 0.3162 µM): 0.564 | relative viability ([3]; first compound 1 µM): 0.441 | relative viability ([4]; first compound 0.01 µM): 1.09 | relative viability ([4]; first compound 0.03162 µM): 0.825 | relative viability ([4]; first compound 0.1 µM): 0.695 | relative viability ([4]; first compound 0.3162 µM): 0.758 | relative viability ([4]; first compound 1 µM): 0.669 | relative viability ([5]; first compound 0.01 µM): 0.986 | relative viability ([5]; first compound 0.03162 µM): 0.974 | relative viability ([5]; first compound 0.1 µM): 0.749 | relative viability ([5]; first compound 0.3162 µM): 0.995 | relative viability ([5]; first compound 1 µM): 0.662 | relative viability ([6]; first compound 0.01 µM): 0.766 | relative viability ([6]; first compound 0.03162 µM): 0.691 | relative viability ([6]; first compound 0.1 µM): 0.861 | relative viability ([6]; first compound 0.3162 µM): 0.747 | relative viability ([6]; first compound 1 µM): 0.556 | relative viability ([7]; first compound 0.01 µM): 0.324 | relative viability ([7]; first compound 0.03162 µM): 0.302 | relative viability ([7]; first compound 0.1 µM): 0.306 | relative viability ([7]; first compound 0.3162 µM): 0.301 | relative viability ([7]; first compound 1 µM): 0.314 | relative viability ([8]; first compound 0.01 µM): 0.713 | relative viability ([8]; first compound 0.03162 µM): 0.63 | relative viability ([8]; first compound 0.1 µM): 0.895 | relative viability ([8]; first compound 0.3162 µM): 0.638 | relative viability ([8]; first compound 1 µM): 0.585 | relative viability ([9]; first compound 0.01 µM): 0.497 | relative viability ([9]; first compound 0.03162 µM): 0.504 | relative viability ([9]; first compound 0.1 µM): 0.375 | relative viability ([9]; first compound 0.3162 µM): 0.422 | relative viability ([9]; first compound 1 µM): 0.419 | relative viability ([10]; first compound 0.01 µM): 0.719 | relative viability ([10]; first compound 0.03162 µM): 0.757 | relative viability ([10]; first compound 0.1 µM): 0.575 | relative viability ([10]; first compound 0.3162 µM): 0.718 | relative viability ([10]; first compound 1 µM): 0.549 | relative viability ([11]; first compound 0.01 µM): 0.457 | relative viability ([11]; first compound 0.03162 µM): 0.467 | relative viability ([11]; first compound 0.1 µM): 0.414 | relative viability ([11]; first compound 0.3162 µM): 0.409 | relative viability ([11]; first compound 1 µM): 0.399 | relative viability ([12]; first compound 0.01 µM): 0.575 | relative viability ([12]; first compound 0.03162 µM): 0.546 | relative viability ([12]; first compound 0.1 µM): 0.566 | relative viability ([12]; first compound 0.3162 µM): 0.549 | relative viability ([12]; first compound 1 µM): 0.433 | relative viability ([13]; first compound 0.01 µM): 0.744 | relative viability ([13]; first compound 0.03162 µM): 0.712 | relative viability ([13]; first compound 0.1 µM): 0.602 | relative viability ([13]; first compound 0.3162 µM): 0.713 | relative viability ([13]; first compound 1 µM): 0.582

NCI-H1623
relative viability ([1]; 0.01 µM): 1.16 | relative viability ([1]; 0.03162 µM): 0.885 | relative viability ([1]; 0.1 µM): 0.918 | relative viability ([1]; 0.3162 µM): 0.951 | relative viability ([1]; 1 µM): 0.686 | relative viability ([2]; first compound 0.01 µM): 0.481 | relative viability ([2]; first compound 0.03162 µM): 0.48 | relative viability ([2]; first compound 0.1 µM): 0.476 | relative viability ([2]; first compound 0.3162 µM): 0.417 | relative viability ([2]; first compound 1 µM): 0.37 | relative viability ([3]; first compound 0.01 µM): 0.602 | relative viability ([3]; first compound 0.03162 µM): 0.534 | relative viability ([3]; first compound 0.1 µM): 0.628 | relative viability ([3]; first compound 0.3162 µM): 0.615 | relative viability ([3]; first compound 1 µM): 0.496 | relative viability ([5]; first compound 0.01 µM): 0.97 | relative viability ([5]; first compound 0.03162 µM): 0.741 | relative viability ([5]; first compound 0.1 µM): 0.867 | relative viability ([5]; first compound 0.3162 µM): 0.994 | relative viability ([5]; first compound 1 µM): 0.64 | relative viability ([7]; first compound 0.01 µM): 0.551 | relative viability ([7]; first compound 0.03162 µM): 0.473 | relative viability ([7]; first compound 0.1 µM): 0.517 | relative viability ([7]; first compound 0.3162 µM): 0.546 | relative viability ([7]; first compound 1 µM): 0.453 | relative viability ([10]; first compound 0.01 µM): 0.496 | relative viability ([10]; first compound 0.03162 µM): 0.473 | relative viability ([10]; first compound 0.1 µM): 0.587 | relative viability ([10]; first compound 0.3162 µM): 0.463 | relative viability ([10]; first compound 1 µM): 0.463 | relative viability ([12]; first compound 0.01 µM): 0.488 | relative viability ([12]; first compound 0.03162 µM): 0.512 | relative viability ([12]; first compound 0.1 µM): 0.448 | relative viability ([12]; first compound 0.3162 µM): 0.398 | relative viability ([12]; first compound 1 µM): 0.364

From the supplement of paper PMC10307832
